Reference: article PMC8482806, “A Novel Blood-Brain Barrier-Permeable Chemotherapeutic Agent for the Treatment of Glioblastoma” (Cureus, 2021)
Read-outs that look alike come from different tables or passages of the source.

Experiments:
8MGBA cells = test: Cell viability assay (CellTiter-Glo), 8MGBA; type: cell-based; conditions: Homo sapiens, 8-MG-BA; Cell Line: 8MGBA; read-out: LC50 (μM ± SD)
Method: (§1) In vitro activity of QBS10072S was assessed using a modified clonogenic cell viability assay in 96-well clear-bottom plates. For the LLC-PK1 inducible LAT1-expressing cell line, 1000 cells/well were plated and cells were treated with either butyrate alone (non-induced) or with both butyrate and doxycycline (induced) as described above. For GBM cell lines, 2000 cells/well were plated. On day 2 (GBM) or day 3 (LLC-PK1) after original plating, cells were washed twice with PBS and incubated with 50 μL of various concentrations of QBS10072S in PBS in at least quadruplicate. After 30 minutes at 37°C, 200 μL of growth medium was added to each well. Clonal populations were allowed to grow until the control wells (mock treatment) were near confluence (7 to 10 days). At this point, 170 μL media were removed and 60 μL CellTiter-Glo® (Promega, Madison, WI) were added to each well. Plates were placed on an orbital shaker for three minutes to lyse the cells and then incubated for an additional 10 minutes at RT to stabilize the luminescent signal. Luminescence was recorded using an EnSpire® Multimode Plate Reader (Perkin Elmer). Background (luminescence from wells incubated with 100 μM melphalan or lomustine) was subtracted and data were normalized to the control. EC50s were determined by non-linear regression using GraphPad Prism.

hLAT1 = target: T1, hLAT1 (Homo sapiens, UniProt Q01650); test: Substrate transport inhibition, [3H]-gabapentin uptake in LLC-PK1 cells expressing hLAT1; type: cell-based
T1 construct: host or cells: LLC-PK1 (tetracycline-inducible, Invitrogen Gateway pT-REx System)
Method: Substrate transport inhibition studies were conducted with LLC-PK1 cells inducibly expressing either hLAT1 or hLAT2. Cells were plated in growth media with 1 μg/mL doxycycline at 30,000 cells/well in 96-well plates. Sixteen hours after plating, cells were treated with butyrate at a final concentration of 5 mM. The following day, cells were washed with PBS and incubated in the presence or absence of various concentrations of QBS10072S with 30,000 cpm/well of either [3H]-gabapentin (LAT1) or [3H]-leucine (LAT2) in PBS for 15 minutes at room temperature. The non-specific cell-bound activity was determined by the addition of 5 mM unlabeled gabapentin (LAT1) or leucine (LAT2). Unincorporated radioactivity was removed, and cells were washed three times with ice-cold PBS. Cells were lysed by adding scintillation fluid to each well, and cell-associated radioactivity was determined via scintillation counting using a multichannel 96-well plate reader (MicroBeta Trilux, Perkin Elmer, Waltham, MA). Data were expressed as the percent of specific radioactivity uptake in wells with no compound added. LC50s were determined by non-linear curve-fitting using GraphPad Prism (San Diego, CA).

[1] = tested on: LLC-PK1 inducible LAT1-expressing cell line; test: Modified clonogenic cell viability assay (CellTiter-Glo), LLC-PK1 inducible LAT1-expressing cells; type: cell-based; conditions: for EC50: Sus scrofa, read-out: EC50, suppression of viability
Method: as §1

42MGBA cells = test: Cell viability assay (CellTiter-Glo), 42MGBA; type: cell-based; conditions: Homo sapiens; Cell Line: 42M6BA; read-out: LC50 (μM ± SD)
Method: as §1

[2] = Microscopic evaluation of brain tissue after dosing rodents; type: in vivo; conditions: rodents dosed with high levels
[3] = tested on: LN229 intracerebral human GBM xenograft; test: LN229 intracerebral human GBM xenograft in athymic mice (BLI, survival); type: in vivo, mouse; conditions: for median survival time: vehicle 56; for %TGI: day 53, three doses
Method: Five-week-old female athymic mice (nu/nu, homozygous: Simonsen Laboratories, Gilroy, CA), housed under aseptic conditions, received intracranial tumor cell injection as previously described and as approved by the University of California San Francisco Institutional Animal Care and Use Committee, Protocol #: AN111064-03. Briefly, mice were anesthetized by intraperitoneal injection of ketamine (100 mg/kg) and xylazine (10 mg/kg) and injected with 3 μL of tumor cell suspension (300,000 cells total) into the right caudate-putamen. Coordinates: 3 mm to the right from bregma, on top of the coronal suture, and 3.5 mm depth. Injection rate: ~30 second/uL. For treatment studies, eight mice were used for each group for LN229 studies and nine mice per group for U251 studies. Treatments began when tumors entered the log-phase of growth as measured by luminescence, for the LN229 experiment on Day 21 and for U251 experiments on Day 14.
Dosing levels and frequency are described in the figure legends.
For bioluminescence imaging (BLI), mice were anesthetized as above, then administered 150 mg/kg of luciferin (D-luciferin potassium salt, Gold Biotechnology, St. Louis, MO) via intraperitoneal injection. Ten minutes after luciferin injection, mice were examined for tumor bioluminescence with an IVIS Lumina imaging station and Living Image software (Caliper Life Sciences, Alameda, CA), and regions of interest were recorded as photons per second per steradian per square cm.

U87 cells = test: WST1 cell viability assay, U87; type: cell-based; conditions: Homo sapiens, U-87 MG, read-out: LC50 (μM ± SD)
Method: In vitro activities of QBS10072S and temozolomide (TMZ) in U87 and U87-MGMT cells were assessed using the WST1 cell viability assay in 96-well plates in which 500/well of cells were plated in sextuplets for each condition. To avoid cell loss, the following washing and medium removing procedures were all done using a P200 pipet without vacuum aspiration. For QBS10072S treatment, cells were washed with PBS the next day and incubated with 50 μL of various concentrations of QBS10072S in PBS for 1 hour at 37°C. After incubation, 150 μL of growth medium was added to each well. The medium was subsequently changed every two days until day 7. For TMZ treatment, cells were treated with 100 μL of various concentrations of TMZ in a growth medium for 2 days. After incubation, cells were put back in a normal growth medium and continued culturing for five days. In the end, 10 μL of WST1 reagent was added to each well and incubated at 37°C for 4h before subjecting to plate reading at 450 nm and 690nm using an EnSpire multimode plate reader (PerkinElmer). Background (OD690nm) was subtracted and data were normalized to the control. LC50s were determined by non-linear regression using GraphPad Prism (GraphPad Software Inc., San Diego, California)

[4] = 2 mg/kg IV once every two weeks
[5] = 4 mg/kg IV once every two weeks
[6] = 8 mg/kg IV once every two weeks

T1 sequence (Q01650 whole entry): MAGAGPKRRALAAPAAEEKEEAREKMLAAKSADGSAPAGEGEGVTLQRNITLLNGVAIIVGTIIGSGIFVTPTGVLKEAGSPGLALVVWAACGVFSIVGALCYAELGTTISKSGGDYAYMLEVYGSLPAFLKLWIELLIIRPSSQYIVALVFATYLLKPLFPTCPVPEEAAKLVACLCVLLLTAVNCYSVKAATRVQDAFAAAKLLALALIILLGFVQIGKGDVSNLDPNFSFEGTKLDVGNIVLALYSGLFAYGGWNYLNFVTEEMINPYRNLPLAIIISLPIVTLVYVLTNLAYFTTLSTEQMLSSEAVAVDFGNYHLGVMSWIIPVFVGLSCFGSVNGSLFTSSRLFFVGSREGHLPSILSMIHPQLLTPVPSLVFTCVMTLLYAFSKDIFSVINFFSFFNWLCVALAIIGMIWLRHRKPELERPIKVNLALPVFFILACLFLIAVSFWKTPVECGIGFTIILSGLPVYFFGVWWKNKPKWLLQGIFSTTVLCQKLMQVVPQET
T1 sequence (P08195 102-630 partner): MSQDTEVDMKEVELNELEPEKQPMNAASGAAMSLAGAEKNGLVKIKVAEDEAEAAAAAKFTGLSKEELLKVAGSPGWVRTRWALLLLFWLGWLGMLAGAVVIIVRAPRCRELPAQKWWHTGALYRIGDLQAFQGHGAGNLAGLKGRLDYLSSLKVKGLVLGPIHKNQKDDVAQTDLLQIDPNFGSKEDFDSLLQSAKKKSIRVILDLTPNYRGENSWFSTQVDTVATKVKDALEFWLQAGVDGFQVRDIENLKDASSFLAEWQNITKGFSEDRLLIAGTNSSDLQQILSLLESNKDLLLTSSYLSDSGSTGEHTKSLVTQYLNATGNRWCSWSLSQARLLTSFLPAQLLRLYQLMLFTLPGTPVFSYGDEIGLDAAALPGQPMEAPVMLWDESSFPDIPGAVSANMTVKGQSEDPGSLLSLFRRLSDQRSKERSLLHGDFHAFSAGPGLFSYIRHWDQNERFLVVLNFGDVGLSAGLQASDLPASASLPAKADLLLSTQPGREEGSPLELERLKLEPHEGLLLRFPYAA

Q: Which CC50 (8MGBA cells) does the source give for `Cc1ccc(N(CCCl)CCCl)cc1C[C@H](N)CC(=O)O` [QBS10072S, (+)-(3S)-amino-4-[5-[bis(2-chloroethyl)amino]-2-methyl-phenyl]butanoic acid] here?
A: 34 ± 20 µM

Q: And the IC50 (hLAT1; [3H]-gabapentin, LLC-PK1 LAT1-expressing cells, 15 minutes at room temperature, read-out: IC50, inhibition of substrate transport (LAT1))?
A: 21 µM

Q: What about the “selectivity LAT1 vs. LAT2 in transport assays” value (hLAT1; ratio of IC50s LAT2/LAT1) of the same compound?
A: 50 fold

Q: And the EC50 ([1]; LLC-PK1, induced, high LAT1 expressing cells)?
A: 1 µM

Q: What about the EC50 ([1]; LLC-PK1, non-induced cells, low endogenous LAT1) of the same compound?
A: 5.5 µM

Q: And the “potency induced vs. non-induced cells” value ([1]; high LAT1 vs. non-induced)?
A: 5.5 times

Q: What about the CC50 (42MGBA cells) of the same compound?
A: 40 ± 10 µM

Q: What about the “alterations of the BBB, microscopic evaluation of brain tissue” value [2] of the same compound?
A: no alterations of the BBB

Q: What about the median survival time [3, 4] of the same compound?
A: 66.5 days

Q: What about the median survival time [3, 5] of the same compound?
A: 71 days

Q: What about the median survival time [3, 6] of the same compound?
A: 74 days

Q: What about the “%TGI” value [3, 4] of the same compound?
A: 72%

Q: And the “%TGI” value [3, 5]?
A: 73%

Q: What about the “%TGI” value [3, 6] of the same compound?
A: 84%

Q: What about the CC50 (U87 cells) of the same compound?
A: 14.7 ± 5.3 µM
